Test results taken from patent US20050059032A1, “Methods & compositions relating to drug-induced arrhythmia” (Pfizer Inc, priority 2002, published 2005).

Test system: patients with congestive heart failure or recent myocardial infarction
Settings: human, in vivo
Excerpt: Genomic DNA samples were obtained from the blood samples of patients enrolled in the DIAMOND study (Danish Investigations of Arrhythmia and Mortality on Dofetilide) or a clinical protocol similar in nature to the DIAMOND Study. These studies focused on the effects of Dofetilide on two populations of patients, one with congestive heart failure and one with recent myocardial infarction associated with left ventricular dysfunction (ejection fraction <35%) (Moller, M., (1996) Lancet, 348(9041):1597-8; Moller, M. et al., (1997) Congest Heart Fail., 7(3):146-150). DNA samples were obtained from 105 patients in total. Of the 105 patients, 7 developed torsade de pointes (TdP) upon treatment with Dofetilide while the remaining 98 patients responded to treatment without developing TdP as a side effect.

## CN(CCOc1ccc(NS(C)(=O)=O)cc1)CCc1ccc(NS(C)(=O)=O)cc1 [Dofetilide]
  patients who developed torsade de pointes (TdP) upon treatment: 7
